Assay results as given in patent US20230312587A1, “PTERIDINONE COMPOUNDS AND USES THEREOF” (Vertex Pharmaceutical Incorporated, priority 2018, published 2023).

What was measured:
HepG2 WFS1 KO = test: In vitro cell viability (CellTiter-Glo), HepG2 WFS1 KO; type: cell-based; details: Homo sapiens; HepG2 WFS1 knockout, 96 hours; read-out: HepG2 WFS1 KO viability
Description: A double cleavage strategy was employed to remove large fragments from the WFS1 locus. Suitable target sites in WFS1 exon 8 were first selected using CRISPR design software to rank suitable target sites and computationally predict off-target sites for each intended target. Six top guide RNA sequences are identified and screened for activity using the Surveyor Mutation Detection Kit (Integrated DNA Technologies). Then, the best 2 guide RNAs were cloned into GeneArt OFP CRISPR nuclease vectors (Thermofisher, Cat #A21174) separately and co-transfected into HepG2 cells using nucleofection (4D Nucleofector X, Lonza). Cells were sorted by FACS 48 hrs later to enrich for the OFP positive cell population. The OFP positive cell population were plated into 96-well plates at 0.5-5 cells/well to isolate clonal cell lines. After allowing cells to expand for 2-3 weeks, plates were inspected for presence of colonies. When colonies became more than 70% confluent, they were dissociated with trypsin and were further expanded. Cell clones with homozygous double cleavage of WFS1 exon 8 were detected with PCR and confirmed with DNA sequencing.
HEK293 cells containing empty pCLPCx vector (HEK293 empty), HEK293 cells stably over-expression WFS1 (HEK293 WFS1), HepG2, and HepG2 cells where WFS1 was depleted via CRISPR/Cas9 (HepG2 WFS1 KO) cells were plated into 96-well black plates (Corning, product #3904) in 100 microliters of complete DMEM cell culture media [DMEM (Life Technologies, product #11960-051) media supplemented with 10% FBS (Hyclone, catalog #SH30071.03), antimycotic/antibiotic (Life Technologies, product #15240-062), and Glutamax (Life Technologies, product #35050-061)] at 1,000 (HEK293) or 5,000 (HepG2) cells per well. Cells were allowed to attach and grow overnight, after which compounds are added at various concentrations. Cell viability was assessed 96 hrs after compound addition with CellTiter-Glo reagent (Promega, catalog #G7570) according to manufacturer's protocol and measurement on a Pherastar luminescence plate reader (BMG Labtech).
To determine the effect of WFS1 depletion on compound mediated inhibition of cell viability, parental HepG2 cells and HepG2 cells where WFS1 was deleted by CRISPR/Cas9 were exposed to increasing concentrations of either Compound 136 or Compound 253 for 96 hours after which time viability was determined using Cell Titer Glo reagent (Promega). […] The IC50s for the viability of both the HepG2 parental and WFS1 knockout cells are summarized in Table 47: A<0.5 μM; 0.5 μM≤<2.0 μM; 2.0 μM≤C<10.0 μM; D≥[…].

Colo-205 cells = test: Calcium flux assay (FLIPR Calcium 5); type: cell-based; details: Homo sapiens, COLO 205, 0.6 h, FLIPR Calcium 5, measured over 36 minutes
Description: Compounds described herein induced ER stress by causing intracellular calcium flux. Calcium flux was measured in Colo-205 cells using the FLTPR® Calcium 5 Assay Kit according to manufacter's protocol (Molecular Devices, Cat. #R8186) on a FLIPR3 system (Molecular Devices). Calcium flux is measured over 36 minutes. The Colo-205 calcium flux assay data are summarized in Table 47: A<0.6 μM; 0.6 μM≤B<2.0 μM; 2.0 μM≤C<10.0 μM; D≥10.0 μM.

[1] = tested on: Colo205-TCF/LEF-Luciferase (Luc) tumor; test: In vivo inhibition of TCF/LEF reporter activity in Colo-205 tumors; design: concentration or dose not given beside the values; details: TCF/LEF luciferase reporter in Colo-205 tumors, nu/nu mice, oral gavage
Method in brief: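 Female nu/nu mice carried subcutaneous Colo205-TCF/LEF-luciferase tumours (200–500 mm^3), n=4 per group. Compound was given by oral gavage in 1:3:5:1 EtOH:DMSO:PEG-400:H2O at 10 ml/kg, with vehicle as control. Luciferase activity in tumour lysates (Steady-Glo) was normalised to BCA protein.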

Row | IC50 (HepG2 WFS1 KO) | EC50 (Colo-205 cells) | Compound | Percent Remaining Activity at 8 hrs after Dosing [1]
1 |  | 600 to 2000 nM | Cc1nc(N[C@H]2C[C@H](Oc3ccnc(C(F)(F)F)c3)C2)nc2c1NC(=O)[C@H](C)N2C [Compound 335, (7S)-4,7,8-trimethyl-2-((trans-3-((2-(trifluoromethyl)pyridin-4-yl)oxy)cyclobutyl)amino)-7,8-dihydropteridin-6(5H)-one] | 18%
2 |  | 600 to 2000 nM | Cc1nc(NCc2cnn(Cc3ccc(C(F)(F)F)nc3)c2)nc2c1NC(=O)[C@H](C(C)C)N2C [Compound 383, (7S)-7-isopropyl-4,8-dimethyl-2-(((1-((6-(trifluoromethyl)pyridin-3-yl)methyl)-1H-pyrazol-4-yl)methyl)amino)-7,8-dihydropteridin-6(5H)-one] | 36%
3 |  | 600 to 2000 nM | Cc1nc(NCc2cnn(Cc3ccc(F)nc3)c2)nc2c1NC(=O)[C@H](C(C)C)N2C [Compound 384, (7S)-2-(((1-((6-fluoropyridin-3-yl)methyl)-1H-pyrazol-4-yl)methyl)amino)-7-isopropyl-4,8-dimethyl-7,8-dihydropteridin-6(5H)-one] | 14%
4 |  | 600 to 2000 nM | Cc1nc(NCc2cnn(Cc3ccc(C(F)(F)F)nc3)c2)nc2c1NC(=O)[C@H](C)N2C(C)C [Compound 385, (7S)-8-isopropyl-4,7-dimethyl-2-(((1-((6-(trifluoromethyl)pyridin-3-yl)methyl)-1H-pyrazol-4-yl)methyl)amino)-7,8-dihydropteridin-6(5H)-one] | 25%
5 |  | 600 to 2000 nM | Cc1nc(NCc2cnn(Cc3ccc(C(F)(F)F)nc3)c2)nc2c1NC(=O)[C@H](C1CC1)N2C [Compound 386, (7S)-7-Cyclopropyl-4,8-dimethyl-2-(((1-((6-(trifluoromethyl)pyridin-3-yl)methyl)-1H-pyrazol-4-yl)methyl)amino)-7,8-dihydropteridin-6(5H)-one] | 19%
6 |  | < 600 nM | Cc1nc(NCc2cnn(Cc3ccc(C(F)(F)F)nc3C(C)C)c2)nc2c1NC(=O)[C@H](C)N2C [Compound 388, (7S)-2-(((1-((2-isopropyl-6-(trifluoromethyl)pyridin-3-yl)methyl)-1H-pyrazol-4-yl)methyl)amino)-4,7,8-trimethyl-7,8-dihydropteridin-6(5H)-one] | 13%
7 |  | 600 to 2000 nM | CCN1c2nc(NCc3cnn(Cc4ccc(C(F)(F)F)nc4)c3)nc(C)c2NC(=O)[C@@H]1C [Compound 395, (7S)-8-Ethyl-4,7-dimethyl-2-(((1-((6-(trifluoromethyl)pyridin-3-yl)methyl)-1H-pyrazol-4-yl)methyl)amino)-7,8-dihydropteridin-6(5H)-one] | 19%
8 |  | 600 to 2000 nM | Cc1nc(NCc2cnn(Cc3cc(C(F)(F)F)nn3C)c2)nc2c1NC(=O)[C@H](C1CC1)N2C [Compound 396, (7S)-7-Cyclopropyl-4,8-dimethyl-2-(((1-((1-methyl-3-(trifluoromethyl)-1H-pyrazol-5-yl)methyl)-1H-pyrazol-4-yl)methyl)amino)-7,8-dihydropteridin-6(5H)-one] | 23%
9 |  | 600 to 2000 nM | Cc1nc(NCc2cnn(Cc3cc(C(F)(F)F)nn3C)c2)nc2c1NC(=O)[C@H](C(C)C)N2C [Compound 397, (7S)-7-Isopropyl-4,8-dimethyl-2-(((1-((1-methyl-3-(trifluoromethyl)-1H-pyrazol-5-yl)methyl)-1H-pyrazol-4-yl)methyl)amino)-7,8-dihydropteridin-6(5H)-one] | 23%
10 |  | 600 to 2000 nM | Cc1nc(NCc2cnn(Cc3ccc(C(F)(F)F)nc3)c2)nc2c1NC(=O)C1(CCC1)N2C [Compound 398, 4′,8′-dimethyl-2′-(((1-((6-(trifluoromethyl)pyridin-3-yl)methyl)-1H-pyrazol-4-yl)methyl)amino)-5′,8′-dihydro-6′H-spiro[cyclobutane-1,7′-pteridin]-6′-one] | 83%

Second part, the compound before the results:

Row | Compound | IC50 (HepG2 WFS1 KO) | EC50 (Colo-205 cells) | Percent Remaining Activity at 8 hrs after Dosing [1]
11 | Cc1nc(NCc2cnn(CCc3ccc(F)cc3)c2)nc2c1NC(=O)[C@H](C)N2C [Compound 6, (7S)-2-(((1-(4-fluorophenethyl)-1H-pyrazol-4-yl)methyl)amino)-4,7,8-trimethyl-7,8-dihydropteridin-6(5H)-one] | ≥ 10000 nM | 600 to 2000 nM | 
12 | Cc1nc(NCc2cnn(CC3CCC3)c2)nc2c1N(C)C(=O)[C@H](C)N2C [Compound 7, (7S)-2-(((1-(cyclobutylmethyl)-1H-pyrazol-4-yl)methyl)amino)-4,5,7,8-tetramethyl-7,8-dihydropteridin-6(5H)-one] | ≥ 10000 nM | 600 to 2000 nM | 
13 | CC[C@H]1C(=O)Nc2c(C)nc(NCc3cnn(Cc4ccc(C(F)(F)F)nc4)c3)nc2N1C [Compound 186, (7S)-7-ethyl-4,8-dimethyl-2-(((1-((6-(trifluoromethyl)pyridin-3-yl)methyl)-1H-pyrazol-4-yl)methyl)amino)-7,8-dihydropteridin-6(5H)-one] |  | 600 to 2000 nM | 23%
14 | Cc1nc(C(F)(F)F)ccc1Cn1cc(CNc2nc(C)c3c(n2)N(C)[C@@H](C)C(=O)N3)cn1 [Compound 188, (S)-4,7,8-trimethyl-2-(((1-((2-methyl-6-(trifluoromethyl)pyridin-3-yl)methyl)-1H-pyrazol-4-yl)methyl)amino)-7,8-dihydropteridin-6(5H)-one] |  | 600 to 2000 nM | 15%
15 | Cc1nc(NCc2cnn(Cc3ccnc(C(F)(F)F)c3)c2)nc2c1NC(=O)[C@H](C)N2C [Compound 207, (7S)-4,7,8-trimethyl-2-(((1-((2-(trifluoromethyl)pyridin-4-yl)methyl)-1H-pyrazol-4-yl)methyl)amino)-7,8-dihydropteridin-6(5H)-one] |  | 600 to 2000 nM | 18%
16 | Cc1nc(N[C@H]2C[C@H](Oc3cc(F)c(F)c(F)c3)C2)nc2c1NC(=O)[C@H](C)N2C [Compound 246, (7S)-4,7,8-trimethyl-2-((trans-3-(3,4,5-trifluorophenoxy)cyclobutyl)amino)-7,8-dihydropteridin-6(5H)-one] |  | ≥ 10000 nM | 18%
17 | Cc1nc(N[C@H]2C[C@@H](COc3cc(F)c(F)c(F)c3)C2)nc2c1NC(=O)[C@H](C)N2C [Compound 257, (7S)-4,7,8-Trimethyl-2-((cis-3-((3,4,5-trifluorophenoxy)methyl)cyclobutyl)-amino)-7,8-dihydropteridin-6(5H)-one] |  | 600 to 2000 nM | 30%
18 | Cc1nc(N[C@@H]2CC[C@@H](Oc3cc(F)c(F)c(F)c3)C2)nc2c1N(C)C(=O)[C@H](C)N2C [Compound 272, (S)-4,5,7,8-tetramethyl-2-(((1R,3R)-3-(3,4,5-trifluorophenoxy)cyclopentyl)amino)-7,8-dihydropteridin-6(5H)-one] |  | 600 to 2000 nM | 14%
19 | Cc1nc(N[C@H]2C[C@H](Oc3ccc(C(F)(F)F)nc3)C2)nc2c1NC(=O)[C@H](C)N2C [Compound 324, (7S)-4,7,8-trimethyl-2-((trans-3-((6-(trifluoromethyl)pyridin-3-yl)oxy)cyclobutyl)amino)-7,8-dihydropteridin-6(5H)-one] |  | < 600 nM | 16%
20 | Cc1nc(N[C@H]2C[C@@H](Sc3cc(F)c(F)c(F)c3)C2)nc2c1NC(=O)[C@H](C)N2C [Compound 332, (7S)-4,7,8-trimethyl-2-((cis-3-((3,4,5-trifluorophenyl)thio)cyclobutyl)amino)-7,8-dihydropteridin-6(5H)-one] |  | 600 to 2000 nM | 51%
